According to patent US20250195457A1, “PHARMACEUTICAL COMPOSITION FOR TREATMENT OF PARKINSON'S DISEASE” (Eisai R&D Management Co., Ltd., priority 2022, published 2025):

Legend:
[1] = test system: Parkinson's disease model cynomolgus monkeys (MPTP); assay: Test Example 2: NDSs after combined administration of Compound (I) and levodopa in MPTP Parkinson's disease model monkeys; assay type: in vivo
Description: (§1) The therapeutic effect of Compound (I) on Parkinson's disease was examined using Parkinson's disease model animals which are produced by administering MPTP (1-methyl-4-phenyl-1,2,3,6-tetrahydropyridine).
Parkinson's disease model cynomolgus monkeys were provided in the same way as in Test Example 1, and the therapeutic effect of the combined administration of Compound (I) and levodopa was examined.
By the end of the study, each animal had received all the five treatments. As a vehicle, an aqueous solution containing 0.43% (w/v) methyl cellulose 400, 10% (v/v) dimethyl sulfoxide (DMSO), and 4.5% (w/v) Cremophor (R) was used.
Before the administration, and 1 hr., 4 hrs., and 24 hrs. after the administration of the test substances, the NDSs of the monkeys were evaluated. The evaluation items and the evaluation methods are the same as in Test Example 1.

[2] = test system: Parkinson's disease mouse model; conditions: pre-onset treatment; cited from earlier work
[3] = test system: levodopa-induced dyskinesia model cynomolgus monkeys; assay: Test Example 3: dyskinesia score in levodopa-induced dyskinesia model monkeys; assay type: in vivo; design: key to Dyskinesia score: dyskinesia score 0 = normal home cage activity to 4 = severe stereotypy; conditions: Istradefylline 60 mg/kg (G4)
Description: A levodopa/carbidopa mixture containing 80 mg/kg of levodopa and 20 mg/kg of carbidopa and having a solution volume of 5 mL/kg was orally administered to Parkinson's disease model cynomolgus monkeys at the age of 6 to 7 prepared in the same way as in Test Example 1 for 8 consecutive days to provide levodopa-induced dyskinesia model cynomolgus monkeys. The induction of dyskinesia was determined based on the “dyskinesia score” in accordance with the following behavior evaluation items in the following test on activity in home cages, and animals having dyskinesia scores of 1 or more on day 7 of the repeated administration of the levodopa/carbidopa mixture were used.
Home cage activities corresponding to dyskinesia scores • 0: Normal home cage activity (exploring or inactivity, able to drink water, plays with mirror or caging, climbing of the walls). • 1: Some interference with normal activity, however able to climb walls. • 2: Occasional exploration of cage, some stereotypy • 3: Little normal movement, lack of climbing of walls, clear stereotypy • 4: Lack of normal home cage activity, lack of normal exploratory behavior and movement, severe stereotypy
Seven levodopa-induced dyskinesia model cynomolgus monkeys were randomized into 4 groups of approximately equal mean and variance in terms of body weight. On subsequent cycles 2, 3, and 4, the animals were crossed over to receive the other treatment. A wash out period of one week or more was set between cycles.
One of the seven animals was excluded from the evaluation of cycles 3 and 4 because it was unable to get up due to dyskinesia on day 8 in cycle 3 of the repeated administration of the levodopa/carbidopa mixture.
By the end of the study, each animal had received all the four treatments. Each substance was administered 1 hr. after the administration on day 8 of the repeated administration of the levodopa/carbidopa mixture. As a vehicle, an aqueous solution containing 0.43% (w/v) methyl cellulose 400, 10% (v/v) dimethyl sulfoxide (DMSO), and 4.5% (w/v) Cremophor (R) were used.
Before the administration, and 1 hr., 4 hrs., and 24 hrs. after the administration of the test substances, the dyskinesia scores of the animals were evaluated. The behavior evaluation was performed in a blinded manner. The dyskinesia scores of the groups were compared using Steel's test. The p-values of less than 0.05 were considered to be statistically significant.

[4] = test system: Parkinson's disease model cynomolgus monkeys (MPTP); assay: Test Example 1: NDSs after administration of Compound (I) alone in MPTP Parkinson's disease model monkeys; assay type: in vivo; design: key to Subgroup 2: Specific motor functions score: specific motor functions subscore, range 0-21; conditions: Istradefylline 60 mg/kg (G5)
Description: as §1
MPTP was administered to male cynomolgus monkeys at the age of 4 to 5 to make Parkinson's disease model cynomolgus monkeys. MPTP was additionally administered to animals with neurologic deficit scores (Neurological deficit scores: NDSs, Schneider et al., “Development of levodopa-induced dyskinesias in parkinsonian monkeys may depend upon rate of symptom onset and/or duration of symptoms”, Brain Res., 2003, 990:38-44.) of less than 25.
Eight Parkinson's disease model cynomolgus monkeys were randomized into 5 groups of approximately equal mean and variance in terms of Parkinson behavior rating (Tremor score) and body weight. On subsequent cycle 2, cycle 3, cycle 4 and cycle 5, the animals were crossed over to receive the other treatments. A wash out period of one week or more was set between each cycle.
By the end of the study, each animal had received all the five treatments. Istradefylline is an adenosine A2A receptor antagonist approved as a drug for improving a wearing off phenomenon in Parkinson's disease being treated with a levodopa-containing preparation in the United States of America and Japan (Patent Literature 4). As a vehicle, an aqueous solution containing 0.43% (w/v) methyl cellulose 400, 10% (v/v) dimethyl sulfoxide (DMSO), and 4.5% (w/v) Cremophor (R) was used.
Before the administration, and 1 hr., 4 hrs., and 24 hrs. after the administration of the test substances, the NDSs of the monkeys were evaluated. The evaluation items are as follows. The behavior evaluation was performed in a blinded manner. The NDSs of the groups were compared using Steel's test. The p-values of less than 0.05 were considered to be statistically significant.
Subgroup 1: generalized behaviors (0-32) • 1.1a Appetite • 0: Normal • 1: Up to 30% food left • 2: Up to 65% food left • 3: Greater than 65% food left • 1.1b Response to offered food • 0: Responds to offered food • 1: Inconsistent response to offered food • 2: Little to no interest in offered food • 1.2 Overall activity • 0: Normal • 1: Mild hypokinesia; decrease in spontaneous movement • 2: Moderate hypokinesia; sparse spontaneous movement • 3: Severe hypokinesia; no spontaneous movement; tends to remain in one place • 1.3 Appearance • 0: Normal • 1: Mild but noticeable decrease in self-maintenance • 2: Moderate decrease in self-maintenance • 3: Severe lack of self-maintenance • 1.4 Posture • 0: Normal • 1: Minor flexing or stooping • 2: Moderate flexing or stooping; head and upper body almost parallel to floor of cage • 3: Severe flexing or stooping; head lowered to feet • 1.5 Balance • 0: Normal • 1: Mild loss on arising or movement • 2: Moderate loss on arising or movement; occasionally falls or supports self to keep from falling • 3: Severe loss of balance; falls • 1.6 Climbing • 0: Climbing observed with no delays in initiation/execution • 1: Mild deficit in ability to climb and support weight • 2: Moderate deficit in ability to climb and support weight; tends to ‘slide down’ • 3: Absence of any climbing behavior • 1.7 Tremor • 0: Absent • 1: Slight and intermittent • 2: Slight and persistent or moderate and intermittent • 3: Moderate/severe and persistent • 1.8 Freezing during movement • 0: Absent • 1: Occasional freezing for brief periods • 2: Occasional freezing for prolonged periods or frequent freezing for brief periods • 3: Prolonged and frequent freezing • 1.9 Facial expression • 0: Normal • 1: Mild hypomimia • 2: Moderate hypomimia • 3: Severe, masked fixed faces • 1.10 Defense reaction • 0: Normal • 1: Mild, noticeable reduction in reaction or slowed reaction, but can be provoked to react • 2: Moderate reduction in reaction; can produce facial display but not body reaction • 3: Little to no response
Subgroup 2: Specific Motor Functions (0-21)

[5] = Levodopa 5 mg/kg (G3), 1 hr. after administration
[6] = Levodopa 5 mg/kg (G3), 4 hrs. after administration
[7] = Levodopa 5 mg/kg (G3), 24 hrs. after administration
[8] = Levodopa 5 mg/kg (G3), Pre (before administration)
[9] = Levodopa 10 mg/kg (G2), 1 hr. after administration
[10] = Levodopa 10 mg/kg (G2), 4 hrs. after administration
[11] = Levodopa 10 mg/kg (G2), 24 hrs. after administration
[12] = Levodopa 10 mg/kg (G2), Pre (before administration)

For `N[C@@H](Cc1ccc(O)c(O)c1)C(=O)O` [Levodopa, levodopa], the “Subgroup 1: GENERALIZED BEHAVIORS score” value [1, 5] was 14.0 ± 0.7, the “Subgroup 2: Specific motor functions score” value [1, 5] was 11.0 ± 0.9 and the “Total score of NDSs” value [1, 5] was 25.0 ± 1.6. For the same compound, the Tremor score [1, 5] was 1.5 ± 0.2, the “Subgroup 1: GENERALIZED BEHAVIORS score” value [1, 6] was 15.0 ± 0.9 and the “Subgroup 2: Specific motor functions score” value [1, 6] was 11.9 ± 0.8. The “Total score of NDSs” value [1, 6] was 26.9 ± 1.7, the Tremor score [1, 6] was 1.8 ± 0.2 and the “Subgroup 1: GENERALIZED BEHAVIORS score” value [1, 7] was 17.0 ± 0.7. For the same compound, the “Subgroup 2: Specific motor functions score” value [1, 7] was 13.6 ± 0.5, the “Total score of NDSs” value [1, 7] was 30.6 ± 1.1 and the Tremor score [1, 7] was 2.0 ± 0.0. For the same compound, the “Subgroup 1: GENERALIZED BEHAVIORS score” value [1, 8] was 17.4 ± 0.7, the “Subgroup 2: Specific motor functions score” value [1, 8] was 14.3 ± 0.5 and the “Total score of NDSs” value [1, 8] was 31.6 ± 1.1. The Tremor score [1, 8] was 2.0 ± 0.0, the “Subgroup 1: GENERALIZED BEHAVIORS score” value [1, 9] was 13.5 ± 0.9 and the “Subgroup 2: Specific motor functions score” value [1, 9] was 10.9 ± 0.5. The “Total score of NDSs” value [1, 9] was 24.4 ± 1.2, the Tremor score [1, 9] was 1.4 ± 0.2 and the “Subgroup 1: GENERALIZED BEHAVIORS score” value [1, 10] was 15.0 ± 0.7. For the same compound, the “Subgroup 2: Specific motor functions score” value [1, 10] was 12.3 ± 0.5, the “Total score of NDSs” value [1, 10] was 27.3 ± 1.0 and the Tremor score [1, 10] was 1.4 ± 0.2. The “Subgroup 1: GENERALIZED BEHAVIORS score” value [1, 11] was 17.6 ± 0.7, the “Subgroup 2: Specific motor functions score” value [1, 11] was 14.0 ± 0.5 and the “Total score of NDSs” value [1, 11] was 31.6 ± 1.0. For the same compound, the Tremor score [1, 11] was 2.0 ± 0.0, the “Subgroup 1: GENERALIZED BEHAVIORS score” value [1, 12] was 17.8 ± 0.6 and the “Subgroup 2: Specific motor functions score” value [1, 12] was 13.9 ± 0.4. For the same compound, the “Total score of NDSs” value [1, 12] was 31.6 ± 0.8 and the Tremor score [1, 12] was 2.0 ± 0.0.
For `Cc1ccsc1C(=CCCN1CCC[C@@H](C(=O)O)C1)c1sccc1C` [tiagabine], the “effect on nigrostriatal axis and motor dysfunction” value [2] is given as “partially protects nigrostriatal axis to ameliorate motor dysfunction”.
Work on `CCn1c(=O)c2c(nc(/C=C/c3ccc(OC)c(OC)c3)n2C)n(CC)c1=O` [Istradefylline, reference compound] yielded a Dyskinesia score ([3]; 1 hr. after administration) of 1.8 ± 0.2, a Dyskinesia score ([3]; 4 hrs. after administration) of 1.8 ± 0.2 and a Dyskinesia score ([3]; 24 hrs. after administration) of 1.8 ± 0.2. For the same compound, the Dyskinesia score ([3]; Pre (before administration)) was 1.7 ± 0.2, the “Subgroup 1: GENERALIZED BEHAVIORS score” value ([4]; 1 hr. after administration) was 16.1 ± 0.9 and the “Subgroup 2: Specific motor functions score” value ([4]; 1 hr. after administration) was 12.3 ± 0.8. The “Total score of NDSs” value ([4]; 1 hr. after administration) was 28.4 ± 1.6, the Tremor score ([4]; 1 hr. after administration) was 1.8 ± 0.2 and the “Subgroup 1: GENERALIZED BEHAVIORS score” value ([4]; 4 hrs. after administration) was 14.5 ± 0.6. The “Subgroup 2: Specific motor functions score” value ([4]; 4 hrs. after administration) was 10.9 ± 0.5, the “Total score of NDSs” value ([4]; 4 hrs. after administration) was 25.4 ± 1.0 and the Tremor score ([4]; 4 hrs. after administration) was 1.6 ± 0.2. The “Subgroup 1: GENERALIZED BEHAVIORS score” value ([4]; 24 hrs. after administration) was 15.9 ± 0.9, the “Subgroup 2: Specific motor functions score” value ([4]; 24 hrs. after administration) was 12.1 ± 0.5 and the “Total score of NDSs” value ([4]; 24 hrs. after administration) was 28.0 ± 1.2. For the same compound, the Tremor score ([4]; 24 hrs. after administration) was 1.6 ± 0.2, the “Subgroup 1: GENERALIZED BEHAVIORS score” value ([4]; Pre (before administration)) was 17.4 ± 0.9 and the “Subgroup 2: Specific motor functions score” value ([4]; Pre (before administration)) was 13.5 ± 0.4. For the same compound, the “Total score of NDSs” value ([4]; Pre (before administration)) was 30.9 ± 1.3 and the Tremor score ([4]; Pre (before administration)) was 2.1 ± 0.1.
